Results taken from article PMC3976407, “Inhibition of Fatty Acid Binding Proteins Elevates Brain Anandamide Levels and Produces Analgesia” (PLoS ONE, 2014).

Columns and labels:
FAAH = target: T1, FAAH (Mus musculus, UniProt O08914); assay: AEA hydrolysis by brain and liver homogenates after injection of inhibitor; format: biochemical; details: mouse brain and liver homogenates harvested 60 min after 20 mg/kg, i.p.; 30 μM [14C]AEA
T1 construct: from tissue; host or cells: mouse brain and liver homogenates
T1 sequence (O08914 1-579): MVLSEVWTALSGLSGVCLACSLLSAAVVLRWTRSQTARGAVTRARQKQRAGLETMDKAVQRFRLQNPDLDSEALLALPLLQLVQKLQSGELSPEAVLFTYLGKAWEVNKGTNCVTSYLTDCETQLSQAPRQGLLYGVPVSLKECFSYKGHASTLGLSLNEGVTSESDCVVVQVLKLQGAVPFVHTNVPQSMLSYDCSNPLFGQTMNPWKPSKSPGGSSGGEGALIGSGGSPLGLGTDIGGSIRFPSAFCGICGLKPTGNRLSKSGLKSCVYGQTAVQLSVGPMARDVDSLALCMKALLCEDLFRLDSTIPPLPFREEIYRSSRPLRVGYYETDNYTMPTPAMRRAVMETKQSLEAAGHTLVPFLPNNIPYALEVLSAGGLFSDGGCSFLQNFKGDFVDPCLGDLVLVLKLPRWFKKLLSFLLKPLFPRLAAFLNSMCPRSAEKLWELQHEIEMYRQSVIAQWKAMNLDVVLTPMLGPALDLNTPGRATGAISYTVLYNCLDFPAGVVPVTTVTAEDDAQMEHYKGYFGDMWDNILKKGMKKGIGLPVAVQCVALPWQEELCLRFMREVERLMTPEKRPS
Protocol: AEA and 2-OG hydrolysis was determined using modified protocols to those described previously, [35]. Mice were injected with inhibitors (20 mg/kg, i.p.) and the brains and livers were harvested 60 min later. The tissue homogenates were subsequently incubated with 30 μM [^14C]AEA or 10 μM [^3H]2-OG for 30 min. Reactions were stopped with two volumes of chloroform:methanol (1∶1) and the methanol phase was counted using a Beckman LS6500 scintillation counter.

[1] = system: formalin-induced nociception in mice; assay: Formalin test; format: in vivo, mouse; details: 20 mg/kg, i.p.
Protocol: Mice were habituated to the observation chamber (Plexiglas box, 25 cm×25 cm×25 cm) for 30 min prior to formalin injection. Mice were administered FABP inhibitors 60 min prior to formalin. The animals subsequently received an injection of formalin (2.5% in saline, 20 μl) into the plantar surface of the right hind paw using a 30 gauge needle and were immediately placed back into the observation chamber and nocifensive behavior (time spent licking or biting the paw) was recorded for 60 min. Nocifensive behavior was scored during the first phase (0–5 min) and the second phase (∼15–45 min) of the formalin test.

[2] = system: brain endocannabinoid levels; assay: Lipid quantification of brain NAEs and 2-AG; format: in vivo; details: mouse, 20 mg/kg, i.p.
Protocol: Quantification of endogenous NAEs and 2-AG were performed as previously described with minor modifications. Mice were rapidly euthanized by decapitation and their brains flash frozen in liquid nitrogen. The brains were subsequently thawed, weighed, and homogenized in 8 ml of 2∶1∶1 CHCl3:MeOH:Tris (50 mM, pH 8) in the presence of 4 ng d4-PEA, 4 ng d2-OEA, 400 pg d4-AEA, and 40 ng d5-2-AG. Following centrifugation at 4°C, the organic layer was removed and brought up to 8 ml with the same buffer and centrifuged again. The resulting organic layer was dried down with argon and resuspended with 100 μl of 2∶1 CHCl3:MeOH and 10 μl was injected into the Thermo TSQ Quantum Access Triple Quadropole mass spectrometer. LC separation was achieved on a Gemini C18 (50×2 mm×5 μm) equipped with a Gemini C18 SecurityGuard precolumn (4 mm length ×2 mm internal diameter). Mobile phase A consisted of 95∶5% v:v H20:MeOH while mobile phase B was composed of 60∶35∶5 v:v:v i-PrOH:MeOH:H2O and quantification was performed in the positive ion mode with the voltage set at 4 kV. 0.1% formic acid was added to assist in ionization. The sheath pressure was 30 and the capillary was set at 270 °C. The flow rate was 100 μl/min. The gradient started at 0% B and increased to 100% B over 15 min followed by an isocratic gradient of 100% B for 10 min, and was equilibrated for 15 min at 0% B.

[3] = system: locomotor activity in mice; assay: Locomotor activity; format: in vivo, mouse; details: 20 mg/kg, i.p., measured 90 min after administration
Protocol: […] Locomotor activity was recorded for 5 min by a video camera suspended above the chamber and subsequently scored by an observer blinded to the treatment conditions. A grid crossing was scored when both hind legs of the animal crossed the border of each grid square.

rats subjected to CCI = assay: Rat neuropathic pain model (chronic constriction injury of the sciatic nerve); format: in vivo; details: 20 mg/kg i.p.
From the text: Male Fisher 344 rats were habituated and pre-injury evoked responses were obtained. The Hargreaves test was used to assess thermal hyperalgesia. Briefly, plexiglass enclosures were set atop a plexiglass platform and infrared source set at 50% power located under the platform was used as the heat stimulus (Ugo Basile). A 200 mW, 535 nm diode laser was mounted in an adjustable stand placed beneath the plexiglass platform, and was used as an alternative heat stimulus for some of the animals in this study. The latency time to hind paw lift during heating of the plantar surface was recorded. Five recordings were obtained on each hind paw with at least 2 min rest between measurements. The maximum time for exposure to the infrared or diode laser source was 30.5 s to avoid any possible tissue injury. For mechanical threshold measurements, the animal enclosures rested on a screen with mesh of 0.5 cm spacing. Following acclimation, an electronic von Frey Anesthesiometer (IITC Life Sciences) was applied with increasing pressure to the plantar surface of the hind paw until the animals lifted the hind paw. The number of grams of force applied by the probe to induce withdrawal was recorded. Five recordings were obtained on each hind paw with at least 3 min between measurements. For CCI surgeries, our procedure closely followed that reported previously. Briefly, each animal received an i.p. injection of ketamine/xylazine (75 mg/kg and 10 mg/kg, respectively). The hind leg was surgically prepped and the anesthetized animal placed prone on an sterile towel over a heating pad. The temperature was monitored rectally. A skin incision was made mid-thigh with a medium curved scalpel and then scissors were used to expose the sciatic nerve. Approximately 1 cm of the main trunk proximal to the trifuraction was isolated and 4 strands of 4-0 chromic gut were tied around the nerve ∼ 1 mm apart under magnification. In a modification of the original method, a 2-0 prolene strand was placed between the nerve and the gut to which the suture was tightened. The prolene strand was then removed. This prevented over tightening and reduced subsequent motor paralysis. The muscle layers were then reopposed and sutured, and surgical staples were used to close the skin. On post-injury days 7 through 10, heat and mechanical measurements were obained for the ipsilateral hindpaw of each CCI animal. Immediately following the post-injury measurements, animals were randomized and received i.p. injections of vehicle or 20 mg/kg SBI26 (DMSO:cremophor:sterile saline 1∶1∶2 by volume). Up to 0.8 ml of drug or vehicle was injected. The observer was blinded as to administration of drug or vehicle. Thermal and mechanical measurements were performed at 1 and 4 h post-injection. Data were normalized to pre-injury baseline measurements for each animal.

O=C(O)C1C(c2ccccc2)C(C(=O)Oc2cccc3ccccc23)C1c1ccccc1 (stereo not drawn) [SBFI26, alpha-2,4-diphenylcyclobutane-1,3-dicarboxylic acid mono-1-naphthyl ester]
Inhibition of AEA hydrolysis (FAAH): did not inhibit
Effect upon first phase of formalin-induced nociception ([1]; first phase 0–5 min): reduced
Effect upon second phase of formalin-induced nociception ([1]; second phase ∼15–45 min): reduced
Brain 2-AG levels ([2]; 90 min): unaffected
Brain OEA levels ([2]; 90 min): unaffected
Brain PEA levels ([2]; 90 min): unaffected
Brain AEA levels ([2]; tissues harvested 90 min after administration): significantly elevated
Locomotor activity [3]: does not alter
Persistence of the effect on thermal hyperalgesia in CCI rats (rats subjected to CCI): up to 4 hrs
Effect on mechanical thresholds in CCI rats (rats subjected to CCI; 1 and 4 h): Neither compound altered
Effect on thermal hyperalgesia in CCI rats (rats subjected to CCI; measured 1 and 4 h post-injection): completely reversed
